EC50 and IC50 data for 22 molecules are collected here from patent US10035792B2, “Resorcinol derivative as HSP90 inhibitor” (priority 2015, dated 2018).

Read-outs that look alike come from different tables or passages of the source.

Assay [1] relates to human lung cancer cell line A549. Briefly: Tumor cell growth inhibition, SRB staining, A549. It counts as cell-based. The note with it: A549, 72 h. How it is done: The growth inhibition assay of tumor cells was detected by sulforhodamine B (SRB) staining method. The specific steps were as follows: inoculating human colon cancer cell line HCT116 and human lung cancer cell line A549 (purchased from American Type Culture Collection, ATCC) at the logarithmic growth phase into a 96-well micro culture plate at an appropriate concentration of 4000 cells/well, 100 μL for each well; after culturing overnight, adding with the compound at different concentrations (100, 10, 1, 0.1, 0.01 μM) to react for 72 h, wherein triplicate wells were set up for each concentration, and solvent control wells with the corresponding concentration and zero wells without cells were also set up. After the completion of the reaction, the culture medium was removed from the adherent cells, the later was added with 10% (w/v) trichloroacetic acid (100 μL/well) at 4° C. to fix for 1 h, and then washed five times with distilled water. After drying at room temperature, 100 μL of SRB solution (4 mg/mL, dissolved in 1% glacial acetic acid) was added into each well, followed by incubation and staining for 15 min at room temperature. The uncombined SRB was removed by washing five times with 1% glacial acetic acid. After drying at room temperature, 100 μL of 10 mM Tris solution was added into each well, and the optical density (OD) at 515 nm was measured by a […] microplate reader. The inhibition rate of the drug to tumor cell growth was calculated according to the following equation: Inhibition rate (%)=(OD of control well-OD of drug well)/OD of control well×100%. The experiment was repeated twice.

Assay [2] addresses HSP90α (Homo sapiens (Human), UniProt P07900). Briefly: Fluorescence polarization (FP) HSP90-alpha target binding assay. The source says: In the present invention, the method of fluorescence polarization (FP) was used to establish the screening platform for HSP90-alpha inhibitors. The principle based on is to calculate fluorescence polarization values in horizontal and vertical directions by detecting molecular weight changes before and after interaction of fluorescent labeled small molecules with other molecules, in use for correlation analysis. If binding equilibria between the fluorescent labeled small molecule and the macromolecule is established, it moves slowly when excited, and the fluorescence polarization values measured will increase. If the fluorescent labeled small molecule binding to the macromolecule is replaced with other ligands, its rotational or inversional speed in free state will become faster, the emitted light would be depolarized with respect to the exciting light plane, and thus the polarized light value measured will decrease, so as to calculate the polarization value of the sample (the unit of polarization value is mP).
The fluorescent labeled small molecule used in the present invention was VER-00051001 (synthesized by reference to the synthetic method described in JMC, 2008, 51, 196-218). The reaction was carried out in a 384-well black plate, using the reaction hydrophobic protein HFB buffer: 100 mM Tris.Cl pH 7.4, 20 mM KCl, 6 mM MgCl2, 5 μg/mL BSA, 25 nM full-length Hsp90U, 10 nM VER-51001. The volume of the reaction system was […], containing 5 nM GM-BODIPY (geldanamycin), 30 nM HSP90 and the test small molecular compound or DMSO (dimethyl sulfoxide), wherein the DMSO content was 2% o. Additional two group wells were established, wherein the wells only added with HFB buffer were used as blank controls, and the wells further added with 5 nM GM-BODIPY were used as negative controls. The reaction was carried out at 4° C. for 12-16 hours. The mP value was measured by Biotek microplate reader at 485 nm of excitation wavelength and 535 nm of emission wavelength. The inhibition rate was calculated using the following equation: (Compound-free mP−Compound mP)/(Compound-free mP−negative control mP)×100%

Where [3] appears, read: fluorescence polarization, read-out: Target binding ability HSP90α FP IC50.

With `CCNC(=O)c1noc(-c2cc(C(C)C)c(O)cc2O)c1-c1ccc2c(c1)CCN(CCF)C2` [Example 46, 5-(2,4-dihydroxyl-5-isopropylphenyl)-N-ethyl-4-(2-(2-fluoroethyl)-1,2,3,4-tetrahydroisoquinolin-6-yl)isoxazole-3-carboxamide], in assay [1], the EC50 was under 20 nM. The IC50 in assay [2] (setting [3]) lay in the range of 20 to 100 nM.
In assay [1], `CCNC(=O)c1noc(-c2cc(C(C)C)c(O)cc2O)c1-c1ccc2c(c1)C1CCC2N1C` (centres unmarked) [Example 5, 5-(2,4-dihydroxyl-5-isopropylphenyl)-N-ethyl-4-(9-methyl-1,2,3,4-tetrahydro-1,4-epiminonaphth-6-yl)isoxazole-3-carboxamide] came in with a 50% effective concentration (EC50) of under 20 nM. Besides, the IC50 in assay [2] lay within 20 to 100 nM.
Molecule `CCNC(=O)c1noc(-c2cc(C(C)C)c(O)cc2O)c1-c1ccc2c(c1)CCN(C(=O)CN(C)C)C2` [Example 59, 5-(2,4-dihydroxyl-5-isopropylphenyl)-4-(2-(2-(dimethylamino)acetyl)-1,2,3,4-tetrahydroisoquinolin-6-yl)-N-ethylisoxazole-3-carboxamide] registered an EC50 in assay [1] of over 100 nM. For the same molecule, the IC50 in assay [2] (setting [3]) lay in the range of 20 to 100 nM.
Regarding `CCNC(=O)c1noc(-c2cc(C(C)C)c(O)cc2O)c1-c1ccc2c(c1)CCN(C(C)C)C2` [Example 51, 5-(2,4-dihydroxyl-5-isopropylphenyl)-N-ethyl-4-(2-isopropyl-1,2,3,4-tetrahydroisoquinolin-6-yl)isoxazole-3-carboxamide], the EC50 in assay [1] lay within 20 to 100 nM. For the same molecule, the half-inhibitory concentration (IC50) in assay [2] (setting [3]) was 20 to 100 nM.
`CCNC(=O)c1noc(-c2cc(C(C)C)c(O)cc2O)c1-c1cc2c(s1)C(C)(C)NCC2` [Example 18, 5-(2,4-dihydroxyl-5-isopropylphenyl)-4-(7,7-dimethyl-4,5,6,7-tetrahydrothieno[2,3-c]pyridin-2-yl)-N-ethyl-isoxazole-3-carboxamide] had an EC50 in assay [1] of 20 to 100 nM. Also, the IC50 in assay [2] (setting [3]) is under 20 nM.
For `CCNC(=O)c1onc(-c2cc(C(C)C)c(O)cc2O)c1-c1ccc2c(c1)CCN(CCOC)C2` [Example 70], in that order: 20 to 100 nM and under 20 nM.
Turning to `CCNC(=O)c1noc(-c2cc(C(C)C)c(O)cc2O)c1-c1cc2c(s1)CCN(C)CC2` [Example 22, 5-(2,4-dihydroxyl-5-isopropylphenyl)-N-ethyl-4-(6-methyl-5,6,7,8-tetrahydro-4H-thieno[2,3-d]azepin-2-yl) isoxazole-3-carboxamide], the EC50 in assay [1] lay in the range of 20 to 100 nM. Further, the IC50 in assay [2] (setting [3]) was under 20 nM.
For the molecule `CCNC(=O)c1noc(-c2cc(C(C)C)c(O)cc2O)c1-c1ccc2c(c1)CCN(CC(=O)N(C)C)C2` [Example 55, 5-(2,4-dihydroxyl-5-isopropylphenyl)-4-(2-(2-(dimethylamino)-2-oxoethyl)-1,2,3,4-tetrahydroisoquinolin-6-yl)-N-ethylisoxazole-3-carboxamide], in assay [1], the EC50 is over 100 nM. The IC50 in assay [2] (setting [3]) fell in the range of 20 to 100 nM.
Consider `COCCNC(=O)c1noc(-c2cc(C(C)C)c(O)cc2O)c1-c1ccc2c(c1)CCN(C)C2` [Example 41, 5-(2,4-dihydroxyl-5-isopropylphenyl)-N-(2-methoxyethyl)-4-(2-methyl-1,2,3,4-tetrahydroisoquinolin-6-yl)isoxazole-3-carboxamide], for which the 50% effective concentration (EC50) in assay [1] was in the range of 20 to 100 nM. Moreover, the IC50 in assay [2] (setting [3]) was under 20 nM.
For `CNC(=O)c1noc(-c2cc(C(C)C)c(O)cc2O)c1-c1ccc2c(c1)CCN(C)C2` [Example 36, 5-(2,4-dihydroxyl-5-isopropylphenyl)-N-methyl-4-(2-methyl-1,2,3,4-tetrahydroisoquinolin-6-yl)isoxazole-3-carboxamide], in that order: under 20 nM and under 20 nM.
`CCNC(=O)c1noc(-c2cc(C(C)C)c(O)cc2O)c1-c1cc2n(c1)CCN(C)C2` [Example 23, 5-(2,4-dihydroxyl-5-isopropylphenyl)-N-ethyl-4-(2-methyl-1,2,3,4-tetrahydropyrrolo[1,2-a]pyrazin-7-yl)isoxazole-3-carboxamide] had an EC50 in assay [1] of 20 to 100 nM. Further, the IC50 in assay [2] (setting [3]) is under 20 nM.
For the molecule `CC(C)c1cc(-c2onc(C(=N)NC#N)c2-c2ccc3c(c2)CCN(C)C3)c(O)cc1O` [Example 21, N-cyano-5-(2,4-dihydroxyl-5-isopropylphenyl)-4-(2-methyl-1,2,3,4-tetrahydroisoquinolin-6-yl)isoxazole-3-carboxamidine], the EC50 in assay [1] was over 100 nM. In addition, in assay [2] (setting [3]), the IC50 is under 20 nM.
In assay [1], `CCNC(=O)c1onc(-c2cc(C(C)C)c(O)cc2O)c1-c1ccc2c(c1)CCN(C)CC2` [Example 27, 3-(2,4-dihydroxyl-5-isopropylphenyl)-N-ethyl-4-(3-methyl-2,3,4,5-tetrahydro-1H-benzo[d]azepin-7-yl)isoxazole-5-carboxamide] returned an EC50 of under 20 nM. For the same molecule, the IC50 in assay [2] (setting [3]) is under 20 nM.
On to `CC(C)NC(=O)c1onc(-c2cc(C(C)C)c(O)cc2O)c1-c1ccc2c(c1)CCN(C)C2` [Example 63, 3-(2,4-dihydroxyl-5-isopropylphenyl)-N-isopropyl-4-(2-methyl-1,2,3,4-tetrahydroisoquinolin-6-yl)isoxazole-5-carboxamide], for which the EC50 in assay [1] was under 20 nM. Also, in assay [2] (setting [3]), the IC50 was under 20 nM.
`CNC(=O)c1onc(-c2cc(C(C)C)c(O)cc2O)c1-c1ccc2c(c1)CCN(C)C2` [Example 62, 3-(2,4-dihydroxyl-5-isopropylphenyl)-N-methyl-4-(2-methyl-1,2,3,4-tetrahydroisoquinolin-6-yl)isoxazole-5-carboxamide]: the EC50 in assay [1] is under 20 nM. Also, the IC50 in assay [2] (setting [3]) was under 20 nM.
The molecule `CCNC(=O)c1onc(-c2cc(C(C)C)c(O)cc2O)c1-c1ccc2c(c1)CCN(CCO)C2` [Example 69] yielded an EC50 in assay [1] of under 20 nM. Also, the IC50 in assay [2] (setting [3]) is under 20 nM.
Consider `CCNC(=O)c1noc(-c2cc(C(C)C)c(O)cc2O)c1-c1ccc2c(c1)CCN(CC)C2` [Example 49, 5-(2,4-dihydroxyl-5-isopropylphenyl)-N-ethyl-4-(2-ethyl-1,2,3,4-tetrahydroisoquinolin-6-yl)isoxazole-3-carboxamide], for which, in assay [1], the half-maximal effective concentration (EC50) is 20 to 100 nM. For the same molecule, the IC50 in assay [2] (setting [3]) was under 20 nM.
With `CCNC(=O)c1noc(-c2cc(Br)c(O)cc2O)c1-c1ccc2c(c1)CCN(C)C2` [Example 30, 5-(2,4-dihydroxyl-5-bromo-phenyl)-N-ethyl-4-(2-methyl-1,2,3,4-tetrahydroisoquinolin-6-yl)isoxazole-3-carboxamide], in assay [1], the EC50 is over 100 nM. In addition, the IC50 in assay [2] (setting [3]) fell in the range of 20 to 100 nM.
Turning to `CCNC(=O)c1noc(-c2cc(C(C)C)c(O)cc2O)c1-c1cc2c(s1)CCN(C)C2` [Example 9, 5-(2,4-dihydroxyl-5-isopropylphenyl)-N-ethyl-4-(5-methyl-4,5,6,7-tetrahydrothieno[3,2-c]pyridin-2-yl)isoxazole-3-carboxamide], the EC50 in assay [1] was in the range of 20 to 100 nM. In assay [2] (setting [3]), the IC50 is 20 to 100 nM.
Regarding `CCNC(=O)c1onc(-c2cc(C(C)C)c(O)cc2O)c1-c1ccc2cnccc2c1` [Example 29, 3-(2,4-dihydroxyl-5-isopropylphenyl)-N-ethyl-4-(isoquinolin-6-yl)isoxazole-5-carboxamide], the EC50 in assay [1] lay within 20 to 100 nM. Further, the IC50 in assay [2] (setting [3]) was under 20 nM.
Turning to `CCNC(=O)c1noc(-c2cc(C(C)C)c(O)cc2O)c1-c1nc2c(s1)CCN(C)C2` [Example 10, 5-(2,4-dihydroxyl-5-isopropyl-phenyl)-N-ethyl-4-(5-methyl-4,5,6,7-tetrahydrothiazolo[4,5-c]pyridin-2-yl)isoxazole-3-carboxamide], the EC50 in assay [1] is 20 to 100 nM. Besides, the IC50 in assay [2] (setting [3]) was 20 to 100 nM.
Regarding `CCc1cnc(-c2noc(-c3cc(C(C)C)c(O)cc3O)c2-c2ccc3c(c2)CCN(C)C3)[nH]1` [Example 16, 4-(3-(5-ethyl-1H-imidazol-2-yl)-4-(2-methyl-1,2,3,4-tetrahydroisoquinolin-6-yl)isoxazol-5-yl)-6-isopropylbenzene-1,3-diol], in assay [1], the EC50 was under 20 nM. Besides, in assay [2] (setting [3]), the half-inhibitory concentration (IC50) lay within 20 to 100 nM.
